Reference: the supplement of paper PMC8882468

Assays:
Test in all cases: CTG-3D luminescence at 96 h relative to day-0 seeding control (ratio to day 0); higher = more growth / less cytotoxicity; PDxO 3D drug screen, 96 h, CTG-3D normalised to day-0 seeding control.
[1] = test system: MDA-MB-231
[2] = test system: HCI-002 (organoid from a triple-negative breast cancer xenograft)
[3] = test system: HCI-011.E2 (organoid from an ER-positive breast cancer xenograft)
[4] = test system: HCI-023 (organoid from a triple-negative breast cancer xenograft)
[5] = test system: HCI-015 (organoid from a triple-negative breast cancer xenograft)

COc1cccc2c1C(=O)c1c(O)c3c(c(O)c1C2=O)C[C@@](O)(C(=O)CO)C[C@@H]3O[C@H]1C[C@H](N)[C@H](O)[C@H](C)O1 [doxorubicin]
CTG-3D luminescence at 96 h
Details	12.5 pM	0.00025 µM	0.005 µM	0.1 µM	1 µM	10 µM	100 µM	625 fM
[1]	4.38	4.45	4.38	3.75	1.48	0.458	0.288	4.4
[3]	1.59	1.65	1.4	1.98	1.42	0.122	0.0255	1.6

CTG-3D luminescence at 96 h
Details	12.5 pM	0.00025 µM	0.005 µM	0.1 µM	1 µM	10 µM	100 µM	625 fM
[2], days in culture: 62	2.87	2.62	2.59	1.61	0.668	0.0335	0.00573	2.88
[2], days in culture: 82	3.24	2.83	2.22	2.02	0.999	0.0349	0.0154	3.02
[2], days in culture: 91	4.09	3.38	3.24	2.3	1.03	0.0844	0.0322	3.96
[2], days in culture: 191	2.74	2.53	2.51	1.69	1.02	0.0535	0.00895	2.52
[2], days in culture: 209	2.54	2.37	2.28	1.51	0.836	0.0193	0.00843	2.44
[2], days in culture: 227	4.92	5.5	4.24	3.32	1.62	0.0266	-0.0178	5.72
[3], days in culture: 74	2.69	1.99	2.17	2.07	1.65	0.129	0.0309	2.14
[4], days in culture: 111	1.54	1.21	1.32	1.1	0.426	0.00296	0.00755	1.45
[4], days in culture: 128	1.92	1.73	1.62	1.33	0.321	0.00812	0.00367	2.08
[5], days in culture: 172	2.4	1.39	2.21	0.657	0.0852	0.0438	0.0135	2.35
[5], days in culture: 191	2.38	1.36	1.43	0.382	0.0711	0.0286	0.019	1.61
[5], days in culture: 218	1.76	1.38	1.98	0.575	0.0701	0.0582	0.0222	1.86

Cc1nc(-c2cn3c(n2)-c2ccc(-c4cnn(C(C)(C)C(N)=O)c4)cc2OCC3)n(C(C)C)n1 [taselisib]
CTG-3D luminescence at 96 h
Details	12.5 pM	0.00025 µM	0.005 µM	0.1 µM	1 µM	10 µM	100 µM	625 fM
[1]	4.54	4.45	4.53	4.29	3.9	2.97	1.22	4.58
[3]	1.44	1.59	1.07	0.776	0.369	0.212	0.527	1.51

CTG-3D luminescence at 96 h
Details	12.5 pM	0.00025 µM	0.005 µM	0.1 µM	1 µM	10 µM	100 µM	625 fM
[2], days in culture: 62	2.78	2.75	2.69	2.06	1.75	1.12	0.0194	3.01
[2], days in culture: 82	2.76	2.9	2.23	2.39	1.79	1.08	0.0159	3.2
[2], days in culture: 91	3.66	3.28	2.4	2.4	1.64	1.32	0.0254	3.59
[2], days in culture: 191	2.84	2.45	2.55	2.13	2.1	0.981	0.137	2.84
[2], days in culture: 209	2.15	2.3	2.09	1.75	1.5	0.726	0.0139	2.45
[2], days in culture: 227	4.99	5.28	4.54	3.54	2.79	1.69	0.0558	5.91
[3], days in culture: 74	2.48	2.64	1.33	0.778	0.432	0.326	0.711	2.81
[4], days in culture: 111	1.53	1.41	1.4	0.966	0.707	0.842	0.0187	1.35
[4], days in culture: 128	1.9392	1.52	1.88	1.68	1.2	1.18	0.33	1.86
[5], days in culture: 172	2.38	1.78	2.27	1.48	1.4	0.489	0.178	3.06
[5], days in culture: 191	2.01	1.36	1.67	0.905	1.12	0.541	0.0414	1.56
[5], days in culture: 218	2.32	1.88	1.69	1.55	0.988	0.617	0.0074	2.08

CC(C)n1nc(-c2ccc3oc(N)nc3c2)c2c(N)ncnc21 [sapanisertib]
CTG-3D luminescence at 96 h
Details	12.5 pM	0.00025 µM	0.005 µM	0.1 µM	1 µM	10 µM	100 µM	625 fM
[1]	4.45	4.42	4.45	2.89	2.2	1.22	0.518	4.61
[3]	1.81	1.79	1.06	0.362	0.179	0.212	0.311	1.74

CTG-3D luminescence at 96 h
Details	12.5 pM	0.00025 µM	0.005 µM	0.1 µM	1 µM	10 µM	100 µM	625 fM
[2], days in culture: 62	2.83	2.68	2.7	0.903	0.579	0.418	0.0431	2.93
[2], days in culture: 82	3.4	3.17	2.04	0.983	0.633	0.403	0.0264	2.93
[2], days in culture: 91	4.16	3.41	2.81	1.44	0.846	0.697	0.0524	4.41
[2], days in culture: 191	2.25	2.71	2.07	1.04	0.718	0.443	0.0974	2.61
[2], days in culture: 209	2.41	2.26	2.27	0.676	0.446	0.209	0.0077	2.18
[2], days in culture: 227	5.28	4.74	4.01	1.33	0.801	0.598	0.0372	5.6
[3], days in culture: 74	2.89	2.86	1.28	0.283	0.158	0.168	0.26	2.98
[4], days in culture: 111	1.32	1.65	1.1	0.701	0.401	0.462	0.0354	1.44
[4], days in culture: 128	1.42	1.44	0.963	0.727	0.428	0.484	0.0623	1.75
[5], days in culture: 172	2.06	1.81	1.9	0.761	0.765	0.544	0.204	2.17
[5], days in culture: 191	1.67	1.6	1.4	0.411	0.69	0.363	0.165	1.72
[5], days in culture: 218	1.96	1.53	1.59	0.561	0.547	0.511	0.156	1.77
